Test results as given in PubChem BioAssay AID2060894 (Molecular Pharmacology Branch, DTP, NCI, 2025).

Test system: K12877-001-R-J1-PDC complex spheroid viability
Assay: Anticancer human tumor K12877-001-R-J1-PDC patient-derived lung adenocarcinoma cell line growth inhibition [RAS]
Conditions: for IC50: curve of first compound; for viability, T/C: stronger effect = lower value; active means viability on the fitted dose curve at most 10% of control; inactive means the rest
Summary of the method: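 Agents were tested in combination matrices in half-log decrements from a top concentration at or near clinical Cmax (10 microM if undetermined). Targets were multi-cell spheroids of tumour lines plus HUVEC and MSC stromal cells.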

[1] = second compound 0.000949 µM, first compound 0.00316 µM
[2] = second compound 0.000949 µM, first compound 0.01 µM
[3] = second compound 0.000949 µM, first compound 0.0316 µM
[4] = second compound 0.000949 µM, first compound 0.1 µM
[5] = second compound 0.003 µM, first compound 0.00316 µM
[6] = second compound 0.003 µM, first compound 0.01 µM
[7] = second compound 0.003 µM, first compound 0.0316 µM
[8] = second compound 0.003 µM, first compound 0.1 µM
[9] = second compound 0.00949 µM, first compound 0.00316 µM
[10] = second compound 0.00949 µM, first compound 0.01 µM
[11] = second compound 0.00949 µM, first compound 0.0316 µM
[12] = second compound 0.00949 µM, first compound 0.1 µM
[13] = second compound 0.03 µM, first compound 0.00316 µM
[14] = second compound 0.03 µM, first compound 0.01 µM
[15] = second compound 0.03 µM, first compound 0.0316 µM
[16] = second compound 0.03 µM, first compound 0.1 µM
[17] = second compound 0.0949 µM, first compound 0.00316 µM
[18] = second compound 0.0949 µM, first compound 0.01 µM
[19] = second compound 0.0949 µM, first compound 0.0316 µM
[20] = second compound 0.0949 µM, first compound 0.1 µM
[21] = second compound 0.3 µM, first compound 0.00316 µM
[22] = second compound 0.3 µM, first compound 0.01 µM
[23] = second compound 0.3 µM, first compound 0.0316 µM
[24] = second compound 0.3 µM, first compound 0.1 µM
[25] = second compound 0.000949 µM, first compound 0.316 µM
[26] = second compound 0.000949 µM, first compound 1 µM
[27] = second compound 0.000949 µM, first compound 3.16 µM
[28] = second compound 0.000949 µM, first compound 10 µM
[29] = second compound 0.003 µM, first compound 0.316 µM
[30] = second compound 0.003 µM, first compound 1 µM
[31] = second compound 0.003 µM, first compound 3.16 µM
[32] = second compound 0.003 µM, first compound 10 µM
[33] = second compound 0.00949 µM, first compound 0.316 µM
[34] = second compound 0.00949 µM, first compound 1 µM
[35] = second compound 0.00949 µM, first compound 3.16 µM
[36] = second compound 0.00949 µM, first compound 10 µM
[37] = second compound 0.03 µM, first compound 0.316 µM
[38] = second compound 0.03 µM, first compound 1 µM
[39] = second compound 0.03 µM, first compound 3.16 µM
[40] = second compound 0.03 µM, first compound 10 µM
[41] = second compound 0.0949 µM, first compound 0.316 µM
[42] = second compound 0.0949 µM, first compound 1 µM
[43] = second compound 0.0949 µM, first compound 3.16 µM
[44] = second compound 0.0949 µM, first compound 10 µM
[45] = second compound 0.3 µM, first compound 0.316 µM
[46] = second compound 0.3 µM, first compound 1 µM
[47] = second compound 0.3 µM, first compound 3.16 µM
[48] = second compound 0.3 µM, first compound 10 µM
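Further: spheroids exposed to agents for one week before readout.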
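Wherever viability, T/C is given: tumour cells co-cultured with HUVEC and mesenchymal stem cells in spheroids.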

CC(C)n1nc(-c2ccc3oc(N)nc3c2)c2c(N)ncnc21 + CCn1c(-c2cc(N3CCN(C)CC3)cnc2C(C)OC)c2c3cc(ccc31)-c1csc(n1)CC(NC(=O)C1CC1C)C(=O)N1CCCC(N1)C(=O)OCC(C)(C)C2
28.4 nM: IC50 (second compound 0.000949 µM)
9.11 nM: IC50 (second compound 0.0949 µM)
13.9 nM: IC50 (second compound 0.03 µM)
17.7 nM: IC50 (second compound 0.00949 µM)
6.13 nM: IC50 (second compound 0.3 µM)
23.4 nM: IC50 (second compound 0.003 µM)
inactive: viability, T/C (second compound 0.000949 µM, first compound 0.000316 µM) 73.8% | viability, T/C (second compound 0.000949 µM, first compound 0.001 µM) 74.5% | viability, T/C [1] 95.7% | viability, T/C [2] 104% | viability, T/C [3] 46.1% | viability, T/C [4] 24.8% | viability, T/C (second compound 0.003 µM, first compound 0.000316 µM) 71.2% | viability, T/C (second compound 0.003 µM, first compound 0.001 µM) 74% | viability, T/C [5] 69.9% | viability, T/C [6] 90.8% | viability, T/C [7] 40.6% | viability, T/C [8] 22.1% | viability, T/C (second compound 0.00949 µM, first compound 0.000316 µM) 64.1% | viability, T/C (second compound 0.00949 µM, first compound 0.001 µM) 65.4% | viability, T/C [9] 76.6% | viability, T/C [10] 75.4% | viability, T/C [11] 29.3% | viability, T/C [12] 17.3% | viability, T/C (second compound 0.03 µM, first compound 0.000316 µM) 77.1% | viability, T/C (second compound 0.03 µM, first compound 0.001 µM) 92.2% | viability, T/C [13] 110% | viability, T/C [14] 61.1% | viability, T/C [15] 28% | viability, T/C [16] 16.2% | viability, T/C (second compound 0.0949 µM, first compound 0.000316 µM) 103% | viability, T/C (second compound 0.0949 µM, first compound 0.001 µM) 102% | viability, T/C [17] 76.5% | viability, T/C [18] 49.1% | viability, T/C [19] 22.3% | viability, T/C [20] 13.6% | viability, T/C (second compound 0.3 µM, first compound 0.000316 µM) 79.1% | viability, T/C (second compound 0.3 µM, first compound 0.001 µM) 92.5% | viability, T/C [21] 60.3% | viability, T/C [22] 40.3% | viability, T/C [23] 19.3% | viability, T/C [24] 11.7%

CC1(O)CCCC1n1c(=O)c(C(F)F)cc2cnc(NC3CCN(S(C)(=O)=O)CC3)nc21 (stereo not drawn) + CCn1c(-c2cc(N3CCN(C)CC3)cnc2C(C)OC)c2c3cc(ccc31)-c1csc(n1)CC(NC(=O)C1CC1C)C(=O)N1CCCC(N1)C(=O)OCC(C)(C)C2
inactive: viability, T/C [3] 95.9% | viability, T/C [4] 78% | viability, T/C [25] 80.6% | viability, T/C [26] 75.6% | viability, T/C [27] 64.5% | viability, T/C [7] 68.9% | viability, T/C [8] 74% | viability, T/C [29] 64.5% | viability, T/C [30] 56.2% | viability, T/C [31] 46.3% | viability, T/C [11] 69.5% | viability, T/C [12] 75.4% | viability, T/C [33] 46.4% | viability, T/C [34] 56.5% | viability, T/C [35] 48.5% | viability, T/C [15] 98.8% | viability, T/C [16] 82% | viability, T/C [37] 47.6% | viability, T/C [38] 58.9% | viability, T/C [39] 46% | viability, T/C [40] 2.97% | viability, T/C [19] 92% | viability, T/C [20] 62.1% | viability, T/C [41] 45.7% | viability, T/C [42] 50.4% | viability, T/C [43] 41.6% | viability, T/C [44] 2.68% | viability, T/C [23] 76.7% | viability, T/C [24] 58% | viability, T/C [45] 41.7% | viability, T/C [46] 49.6% | viability, T/C [47] 43.6% | viability, T/C [48] 2.64%
545 nM: IC50 (second compound 0.0949 µM)
382 nM: IC50 (second compound 0.3 µM)
active: viability, T/C [28] 3.86% | viability, T/C [32] 3.15% | viability, T/C [36] 2.9%
889 nM: IC50 (second compound 0.03 µM)
4010 nM: IC50 (second compound 0.000949 µM)
1840 nM: IC50 (second compound 0.00949 µM)
1990 nM: IC50 (second compound 0.003 µM)

CCN1CCN(Cc2ccc(Nc3ncc(F)c(-c4cc(F)c5nc(C)n(C(C)C)c5c4)n3)nc2)CC1 + CCn1c(-c2cc(N3CCN(C)CC3)cnc2C(C)OC)c2c3cc(ccc31)-c1csc(n1)CC(NC(=O)C1CC1C)C(=O)N1CCCC(N1)C(=O)OCC(C)(C)C2
578 nM: IC50 (second compound 0.00949 µM)
376 nM: IC50 (second compound 0.3 µM)
469 nM: IC50 (second compound 0.03 µM)
516 nM: IC50 (second compound 0.0949 µM)
803 nM: IC50 (second compound 0.003 µM)
inactive: viability, T/C [1] 79.9% | viability, T/C [2] 84.1% | viability, T/C [3] 85% | viability, T/C [4] 92.5% | viability, T/C [25] 86.8% | viability, T/C [26] 73.2% | viability, T/C [5] 73.7% | viability, T/C [6] 72.1% | viability, T/C [7] 72.7% | viability, T/C [8] 69.3% | viability, T/C [29] 70.2% | viability, T/C [30] 45.3% | viability, T/C [9] 61.7% | viability, T/C [10] 61.3% | viability, T/C [11] 68.9% | viability, T/C [12] 70.8% | viability, T/C [33] 72% | viability, T/C [34] 34.6% | viability, T/C [13] 81.7% | viability, T/C [14] 86.8% | viability, T/C [15] 74.3% | viability, T/C [16] 89.8% | viability, T/C [37] 61.5% | viability, T/C [38] 28.1% | viability, T/C [17] 106% | viability, T/C [18] 97.9% | viability, T/C [19] 99.6% | viability, T/C [20] 86.5% | viability, T/C [41] 63% | viability, T/C [42] 32.3% | viability, T/C [21] 97% | viability, T/C [22] 86.2% | viability, T/C [23] 86.5% | viability, T/C [24] 76.2% | viability, T/C [45] 53.1% | viability, T/C [46] 26.1%
> 1000 nM: IC50 (second compound 0.000949 µM)

C[C@@H](NC(=O)c1ncnc(N)c1Cl)c1ncc(C(=O)Nc2cc(C(F)(F)F)c(Cl)cn2)s1 + CCn1c(-c2cc(N3CCN(C)CC3)cnc2C(C)OC)c2c3cc(ccc31)-c1csc(n1)CC(NC(=O)C1CC1C)C(=O)N1CCCC(N1)C(=O)OCC(C)(C)C2
inactive: viability, T/C [3] 85.3% | viability, T/C [4] 85.3% | viability, T/C [25] 81.8% | viability, T/C [26] 84.3% | viability, T/C [27] 89.9% | viability, T/C [28] 75.3% | viability, T/C [7] 72.5% | viability, T/C [8] 78.3% | viability, T/C [29] 70.8% | viability, T/C [30] 83.6% | viability, T/C [31] 77.2% | viability, T/C [32] 83.2% | viability, T/C [11] 66.4% | viability, T/C [12] 62.7% | viability, T/C [33] 67.8% | viability, T/C [34] 69.5% | viability, T/C [35] 70.1% | viability, T/C [36] 68.8% | viability, T/C [15] 62.2% | viability, T/C [16] 58.3% | viability, T/C [37] 60% | viability, T/C [38] 68.3% | viability, T/C [39] 66.3% | viability, T/C [40] 112% | viability, T/C [19] 101% | viability, T/C [20] 89.7% | viability, T/C [41] 97.8% | viability, T/C [42] 106% | viability, T/C [43] 129% | viability, T/C [44] 121% | viability, T/C [23] 100% | viability, T/C [24] 100% | viability, T/C [45] 103% | viability, T/C [46] 111% | viability, T/C [47] 97.8% | viability, T/C [48] 111%
> 10000 nM: IC50 (second compound 0.000949 µM) | IC50 (second compound 0.003 µM) | IC50 (second compound 0.00949 µM) | IC50 (second compound 0.03 µM) | IC50 (second compound 0.0949 µM) | IC50 (second compound 0.3 µM)
